In brackets after ≈: the same amount, converted by molar mass.
What was measured:
Assay in all cases: Growth inhibition of yeast, IC 50% determination
Type in all cases: cell-based
Cand. albicans = conditions: Candida albicans; Cand. albicans (pathogen +)
Excerpt: (§1) One method of determining the microbiological activity of the compounds according to the invention on yeasts is the determination of the inhibitory concentration 50% (IC 50%).

Cand. curvata = Cand. curvata (pathogen +)
Excerpt: as §1

Cand. krusei = conditions: Pichia kudriavzevii; Cand. krusei (pathogen +)
Excerpt: as §1

Cand. parapsilosis = conditions: Lodderomyces parapsilosis; Cand. parapsilosis (pathogen +)
Excerpt: as §1

Cand. pseudotropicalis = conditions: Kluyveromyces marxianus; Cand. pseudotropicalis (pathogen +)
Excerpt: as §1

[1] = system: Cryptococcus neoformans 1; conditions: Cryptococcus neoformans 1 (pathogen +)
Excerpt: as §1

[2] = system: Cryptococcus neoformans 2; conditions: Cryptococcus neoformans 2 (pathogen +)
Excerpt: as §1

Geotrichum capitum = Geotrichum capitum (pathogen +)
Excerpt: as §1

Hansenula anomala = Hansenula anomala (pathogen -)
Excerpt: as §1

Metschnikowia pulch = Metschnikowia pulch (pathogen -)
Excerpt: as §1

Rhodotorula spec. = Rhodotorula spec. (pathogen -)
Excerpt: as §1

Sacch. cerevisiae 1 = conditions: Saccharomyces cerevisiae; Sacch. cerevisiae 1 (pathogen (+))
Excerpt: as §1

Sacch. cerevisiae 2 = conditions: Saccharomyces cerevisiae; Sacch. cerevisiae 2 (pathogen (+))
Excerpt: as §1

Sacch. fragilis = Sacch. fragilis (pathogen (+))
Excerpt: as §1

Sacch. rouxii = Sacch. rouxii (pathogen (+))
Excerpt: as §1

Sacch. uvarum = Sacch. uvarum (pathogen (+))
Excerpt: as §1

CSC(=NC#N)N1CCN(c2ccc(OC[C@H]3CO[C@](Cn4ccnc4)(c4ccc(Cl)cc4Cl)O3)cc2)CC1 (relative stereo) [Example 2, cis-1-Cyanimino-methylthio-methylene-4-[4[[2-(2,4-dichlorophenyl)-2-(1H-imidazol-1-ylmethyl)-1,3-dioxolan-4-yl]-methoxy]-phenyl]-piperazine]
IC50 (Cand. albicans): 0.00125 µg/mL (≈ 0.00213 µM)
IC50 (Cand. curvata): 0.125 µg/mL (≈ 0.213 µM)
IC50 (Cand. krusei): 0.125 µg/mL (≈ 0.213 µM)
IC50 (Cand. parapsilosis): 0.0125 µg/mL (≈ 0.0213 µM)
IC50 (Cand. pseudotropicalis): 0.00125 µg/mL (≈ 0.00213 µM)
IC50 [1]: 0.0125 µg/mL (≈ 0.0213 µM)
IC50 [2]: 0.125 µg/mL (≈ 0.213 µM)
IC50 (Geotrichum capitum): 0.125 µg/mL (≈ 0.213 µM)
IC50 (Hansenula anomala): 0.00125 µg/mL (≈ 0.00213 µM)
IC50 (Metschnikowia pulch): 0.00125 µg/mL (≈ 0.00213 µM)
IC50 (Rhodotorula spec.): 1.25 µg/mL (≈ 2.13 µM)
IC50 (Sacch. cerevisiae 1): 1.25 µg/mL (≈ 2.13 µM)
IC50 (Sacch. cerevisiae 2): 1.25 µg/mL (≈ 2.13 µM)
IC50 (Sacch. fragilis): 0.0125 µg/mL (≈ 0.0213 µM)
IC50 (Sacch. rouxii): 0.00125 µg/mL (≈ 0.00213 µM)
IC50 (Sacch. uvarum): 1.25 µg/mL (≈ 2.13 µM)

— patent US4634700A, “1,3-dioxolanyl derivatives, a process for their preparation, their use and pharmaceutical preparations containing these compounds” (Ludwig Heumann & Co., GmbH, priority 1984, dated 1987)
